One data set deals with T1, TaGLDH-D1 (Triticum aestivum, UniProt W5FUB4).
T1 construct: gene LOC123120310; crude mitochondrial fraction
As to the kind of experiment: cytochrome c reduction, absorbance at […] nm, crude mitochondrial fraction. The format is biochemical. Particulars: 4 μM L-GalL, 60 μM cytochrome c, 50 mM Tris-HCl pH 8.0, 0.15% Triton X-100; against PEBV:GUS control.

For another data set, the target named is T2, TaGLDH-B1 (Triticum aestivum, UniProt W5FJN8).
T2 construct: gene LOC123111215; crude mitochondrial fraction
Described as above. The format is biochemical. Particulars: 4 μM L-GalL, 60 μM cytochrome c, 50 mM Tris-HCl pH 8.0, 0.15% Triton X-100; against PEBV:GUS control.

Substrate in the data set “purified protein”: O=C1O[C@H]([C@@H](O)CO)[C@@H](O)[C@@H]1O
As to the kind of experiment: purified protein. It counts as biochemical, Triticum aestivum. The following applies: 60 μM cytochrome c, 25 mM Tris-HCl pH 8.0, 25 mM NaCl.

T1 sequence (W5FUB4 entry or part of it): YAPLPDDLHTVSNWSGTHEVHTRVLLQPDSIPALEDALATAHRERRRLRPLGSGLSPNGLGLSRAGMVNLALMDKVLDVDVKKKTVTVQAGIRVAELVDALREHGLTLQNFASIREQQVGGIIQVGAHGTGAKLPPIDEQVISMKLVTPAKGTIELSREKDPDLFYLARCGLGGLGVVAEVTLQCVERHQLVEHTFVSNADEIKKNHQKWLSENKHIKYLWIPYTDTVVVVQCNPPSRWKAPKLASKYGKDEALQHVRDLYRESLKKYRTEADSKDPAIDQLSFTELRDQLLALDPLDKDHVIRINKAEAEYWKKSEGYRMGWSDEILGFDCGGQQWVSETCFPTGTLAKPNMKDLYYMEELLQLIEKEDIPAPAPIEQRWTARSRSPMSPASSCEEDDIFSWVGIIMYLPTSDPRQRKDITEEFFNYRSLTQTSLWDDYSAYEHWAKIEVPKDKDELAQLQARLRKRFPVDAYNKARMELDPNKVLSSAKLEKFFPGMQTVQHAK
T2 sequence (W5FJN8 entry or part of it): as the sequence (W5FUB4 entry or part of it) above, with K133R, R158T, A241T, H256Y, L292I, C395S counted along it

As to `O=C1O[C@H]([C@@H](O)CO)[C@@H](O)[C@@H]1O` [L-galactono-1,4-lactone], the “total GLDH activity” value on TaGLDH-D1 is listed as “GLDH activity level was significantly higher in the leaves infected by PEBV:A1, PEBV:B1 or PEBV:D1”; on TaGLDH-B1, “GLDH activity level was significantly higher in the leaves infected by PEBV:A1, PEBV:B1 or PEBV:D1”.

B1: TaGLDH-A1a (wild-type allele of TaGLDH-A1) (Triticum aestivum; DEL501-501) (protein)
chain: YAPLPDDLHTVSNWSGTHEVHTRVLLQPDSIPALEDALATAHRERRRLRPLGSGLSPNGLGLSRAGMVNLALMDKVLDVDVKKKTVTVQAGIRVAELVDALSKHGLTLQNFASIREQQVGGIIQVGAHGTGARLPPIDEQVISMKLVTPAKGTIELSREKNPDLFYLARCGLGGLGVVAEVTLQCVERHQLVEHTFVSNADEIKKNHQNWLSENKHIKYLWIPYTDTVVVVQCNPPSRWKTPKLASKYVKDEALQHVRDLYRESLKKYRTEADSKDPAIDQLSFTELRDQLLALDPLDKDHVIRINKAEAEYWKKSEGYRMCWSDEILGFDCGGQQWVSETCFPTGTLAKPNMKDLYYMEELLQLIEEEDIPAPAPIEQRWTAHSRSPMSPASSSEEDDIFSWVGIIMYLPTSDPRQRKDITEFFNYRSLTQTSLWDDYSAYEHWAKIEVPKDKDELAQLQARLRKRFPVDAYNKARMELDPNKVLSSAKLEKFFPGMQTVQHAR
notes: without first 78 residues (putative mitochondrial targeting peptide), N-terminal His tag, pET-30a, E. coli
Consider B1, for which the Km – broadly, the substrate concentration at which the rate is half of its maximum – in “purified protein” (natural allele TaGLDH-A1b (Glu501 absent), cDNA from cv. Kashibaipi) came to 181.0 ± 67.1 µM.

B2: TaGLDH-A1a (wild-type allele of TaGLDH-A1) (Triticum aestivum) (protein)
chain: YAPLPDDLHTVSNWSGTHEVHTRVLLQPDSIPALEDALATAHRERRRLRPLGSGLSPNGLGLSRAGMVNLALMDKVLDVDVKKKTVTVQAGIRVAELVDALSKHGLTLQNFASIREQQVGGIIQVGAHGTGARLPPIDEQVISMKLVTPAKGTIELSREKNPDLFYLARCGLGGLGVVAEVTLQCVERHQLVEHTFVSNADEIKKNHQNWLSENKHIKYLWIPYTDTVVVVQCNPPSRWKTPKLASKYVKDEALQHVRDLYRESLKKYRTEADSKDPAIDQLSFTELRDQLLALDPLDKDHVIRINKAEAEYWKKSEGYRMCWSDEILGFDCGGQQWVSETCFPTGTLAKPNMKDLYYMEELLQLIEEEDIPAPAPIEQRWTAHSRSPMSPASSSEEDDIFSWVGIIMYLPTSDPRQRKDITEEFFNYRSLTQTSLWDDYSAYEHWAKIEVPKDKDELAQLQARLRKRFPVDAYNKARMELDPNKVLSSAKLEKFFPGMQTVQHAR
notes: as for B1
On to B2, for which the Km in “purified protein” stood at 61.0 ± 5.4 µM.

(Values after PMC4957090, “A novel allele of L-galactono-1,4-lactone dehydrogenase is associated with enhanced drought tolerance through affecting stomatal aperture in common wheat” (Scientific Reports, 2016).)
